The source made the active and inactive calls. The calls are words filed in the database; no cut-off is given here.

The test system of assay [1] is Rattus norvegicus. The experiment in a line: Gastroprotective effect against ethanol-induced gastric damage in fasted Wistar rat assessed as extent of mucosal damage at 40 mg/kg, po pretreated 30 mins before ethanol challenge measured after 60 mins.
In assay [2] the test system is Rattus norvegicus. The experiment in a line: Gastroprotective effect against ethanol-induced gastric damage in fasted Wistar rat assessed as extent of mucosal damage at 40 mg/kg, po pretreated 30 mins before ethanol challenge in presence of indomethacin pretreated 60 mins before ethanol challenge. It is filed as functional, Stomach.
The test system of assay [3] is Rattus norvegicus. The experiment in a line: Gastroprotective effect against ethanol-induced gastric damage in fasted Wistar rat assessed as extent of mucosal damage at 40 mg/kg, po pretreated 30 mins before ethanol challenge in presence of N-ethylmaleimide and indomethacin pretreated 60 mins before ethanol challenge.
The subject of assay [4] is Rattus norvegicus. The experiment in a line: Gastroprotective effect against ethanol-induced gastric damage in fasted Wistar rat assessed as extent of mucosal damage at 40 mg/kg, po pretreated 30 mins before ethanol challenge in presence of N-ethylmaleimide pretreated 60 mins before ethanol challenge.
For assay [5], the species on record is Rattus norvegicus. The experiment in a line: Gastroprotective effect in pylorus-ligated Wistar rat assessed as inhibition of acid secretion. Type of assay: functional, organism-based.
The test system of assay [6] is Rattus norvegicus. The experiment in a line: Gastroprotective effect in fasted Wistar rat assessed as increase in rate of gastric mucus glycoprotein synthesis at 40 mg/kg, po after 1 hr by N-acetyl-D-[1-3H]glucosamine incorporation method relative to control. It is filed as functional, Gastric mucosa.

As to `C=C1C(=O)O[C@@H]2[C@H]3C(C)=CC(=O)C3=C(C)CC[C@@H]12` [DEHYDROLEUCODIN], the UI in the assay on Rattus norvegicus [1] came to 0.3; in the assay on Rattus norvegicus [2], 1.2; in the assay with Rattus norvegicus [3], 3.3; in the assay with Rattus norvegicus [4], 2.4. Moreover, the outcome in the assay listed under Rattus norvegicus [5] was inactive. The “fold change (FC)” value in the assay on Rattus norvegicus [6] came out at 7.

These data come from ChEMBL document CHEMBL1149057, “Mucus synthesis and sulfhydryl groups in cytoprotection mediated by dehydroleucodine, a sesquiterpene lactone” (1994).
